Test results taken from publication PMC8453901, “GLPG1205, a GPR84 Modulator: Safety, Pharmacokinetics, and Pharmacodynamics in Healthy Subjects” (Clinical Pharmacology in Drug Development, 2021).
Where “and” joins values, the source holds several entries; their conditions need not be identical. Identical values can stand only once.

Key:
[1] = Safety and tolerability, study 1 MAD part; assay type: in vivo, human
Description: Safety and tolerability were assessed on the basis of adverse events (AEs), which were monitored throughout both studies. Additional safety assessments included vital signs (including supine [and standing in study 2] heart rate, systolic and diastolic blood pressure, and oral body temperature), 12‐lead electrocardiogram (ECG), clinical laboratory tests (hematology, coagulation [study 2 only], serum/plasma chemistry, urinalysis, urine drug screen, serology, and alcohol breath test), and a comprehensive physical examination. […] In the MAD part of study 1, all additional safety assessments were performed at screening; days 1, 2, 8, 14, and 15; and at follow‐up. In study 2, additional safety assessments were performed at screening (between 21 and 2 days before the first study drug administration); days 1, 2, 5, 10, 14, 15, and 20 (clinical laboratory tests were not performed on day 20); at early discontinuation; and at follow‐up. For study 2, renal function tests (measurement of estimated creatinine clearance rate using the Cockcroft‐Gault equation) were also included in the clinical laboratory tests for safety assessment.
In both studies, the safety analysis was descriptive and focused on changes from baseline and treatment‐emergent findings.

[2] = system: CYP1A2; set-up: method as in data on file at Galapagos; conditions: in vitro; ref data on file at Galapagos; cited from earlier work
[3] = system: CYP2C19; set-up: method as in data on file at Galapagos; conditions: in vitro; ref data on file at Galapagos; cited from earlier work

O=c1nc(OC[C@@H]2COCCO2)cc2n1CCc1cc(C#CC3CC3)ccc1-2 [GLPG1205, 9‐cyclopropylethynyl‐2‐((S)‐1‐[1,4]dioxan‐2‐ylmethoxy)‐6,7‐dihydropyrimido[6,1‐a]isoquinolin‐4‐one]
Nausea (TEAE) ([1]; 100 mg QD (n = 6)): 1 (16.7) number of subjects (%)
Nervous system disorders (TEAE) ([1]; 100 mg QD (n = 6)): 3 (50.0) number of subjects (%)
Oropharyngeal pain (TEAE) ([1]; 100 mg QD (n = 6)): 1 (16.7) number of subjects (%)
Respiratory, thoracic, and mediastinal disorders (TEAE) ([1]; 100 mg QD (n = 6)): 1 (16.7) number of subjects (%)
Skin and subcutaneous tissue disorders (TEAE) ([1]; 100 mg QD (n = 6)): 2 (33.3) number of subjects (%)
Somnolence (TEAE) ([1]; 100 mg QD (n = 6)): 0 number of subjects (%)
Vascular disorders (TEAE) ([1]; 100 mg QD (n = 6)): 0 number of subjects (%)
Vomiting (TEAE) ([1]; 100 mg QD (n = 6)): 0 number of subjects (%)
subjects with treatment-emergent abnormality during physical examination ([1]; 100 mg once daily): 1 n
Abdominal discomfort (TEAE) ([1]; 200 mg QD (n = 6)): 1 (16.7) number of subjects (%)
Abdominal distension (TEAE) ([1]; 200 mg QD (n = 6)): 1 (16.7) number of subjects (%)
Abdominal pain (TEAE) ([1]; 200 mg QD (n = 6)): 1 (16.7) number of subjects (%)
Abdominal pain upper (TEAE) ([1]; 200 mg QD (n = 6)): 0 number of subjects (%)
Any TEAE ([1]; 200 mg QD (n = 6)): 5 (83.3) number of subjects (%)
Decreased appetite (TEAE) ([1]; 200 mg QD (n = 6)): 1 (16.7) number of subjects (%)
Dehydration (TEAE) ([1]; 200 mg QD (n = 6)): 2 (33.3) number of subjects (%)
Diarrhea (TEAE) ([1]; 200 mg QD (n = 6)): 1 (16.7) number of subjects (%)
Disturbance in attention (TEAE) ([1]; 200 mg QD (n = 6)): 1 (16.7) number of subjects (%)
Dizziness (TEAE) ([1]; 200 mg QD (n = 6)): 1 (16.7) number of subjects (%)
Dry skin (TEAE) ([1]; 200 mg QD (n = 6)): 0 number of subjects (%)
Ecchymosis (TEAE) ([1]; 200 mg QD (n = 6)): 0 number of subjects (%)
Erythema (TEAE) ([1]; 200 mg QD (n = 6)): 0 number of subjects (%)
Fatigue (TEAE) ([1]; 200 mg QD (n = 6)): 3 (50.0) number of subjects (%)
Flatulence (TEAE) ([1]; 200 mg QD (n = 6)): 1 (16.7) number of subjects (%)
Gastrointestinal disorders (TEAE) ([1]; 200 mg QD (n = 6)): 4 (66.7) number of subjects (%)
General disorders and administration site conditions (TEAE) ([1]; 200 mg QD (n = 6)): 3 (50.0) number of subjects (%)
Headache (TEAE) ([1]; 200 mg QD (n = 6)): 4 number of subjects (%) and 4 (66.7) number of subjects (%)
Hot flush (TEAE) ([1]; 200 mg QD (n = 6)): 1 (16.7) number of subjects (%)
Metabolism and nutrition disorders (TEAE) ([1]; 200 mg QD (n = 6)): 2 (33.3) number of subjects (%)
Musculoskeletal and connective tissue disorders (TEAE) ([1]; 200 mg QD (n = 6)): 1 (16.7) number of subjects (%)
Musculoskeletal stiffness (TEAE) ([1]; 200 mg QD (n = 6)): 1 (16.7) number of subjects (%)
Nausea (TEAE) ([1]; 200 mg QD (n = 6)): 2 (33.3) number of subjects (%)
Nervous system disorders (TEAE) ([1]; 200 mg QD (n = 6)): 5 (83.3) number of subjects (%)
Oropharyngeal pain (TEAE) ([1]; 200 mg QD (n = 6)): 2 (33.3) number of subjects (%)
Respiratory, thoracic, and mediastinal disorders (TEAE) ([1]; 200 mg QD (n = 6)): 2 (33.3) number of subjects (%)
Skin and subcutaneous tissue disorders (TEAE) ([1]; 200 mg QD (n = 6)): 0 number of subjects (%)
Somnolence (TEAE) ([1]; 200 mg QD (n = 6)): 1 (16.7) number of subjects (%)
Vascular disorders (TEAE) ([1]; 200 mg QD (n = 6)): 1 (16.7) number of subjects (%)
Vomiting (TEAE) ([1]; 200 mg QD (n = 6)): 2 (33.3) number of subjects (%)
subjects with treatment-emergent abnormality during physical examination ([1]; 200 mg once daily): 2 n
TEAE leading to study drug withdrawal: abdominal pain ([1]; 200-mg once-daily group): 1 n
TEAE leading to study drug withdrawal: decreased appetite ([1]; 200-mg once-daily group): 1 n
TEAE leading to study drug withdrawal: dehydration ([1]; 200-mg once-daily group): 2 n
TEAE leading to study drug withdrawal: diarrhea ([1]; 200-mg once-daily group): 1 n
TEAE leading to study drug withdrawal: dizziness ([1]; 200-mg once-daily group): 1 n
TEAE leading to study drug withdrawal: fatigue ([1]; 200-mg once-daily group): 2 n
TEAE leading to study drug withdrawal: flatulence ([1]; 200-mg once-daily group): 1 n
TEAE leading to study drug withdrawal: headache ([1]; 200-mg once-daily group): 3 n
TEAE leading to study drug withdrawal: musculoskeletal stiffness ([1]; 200-mg once-daily group): 1 n
TEAE leading to study drug withdrawal: nausea ([1]; 200-mg once-daily group): 1 n
TEAE leading to study drug withdrawal: vomiting ([1]; 200-mg once-daily group): 2 n
subjects in whom study drug was withdrawn ([1]; 200-mg once-daily group): 3 subjects
subjects with abnormally high hematocrit, hemoglobin and red blood cell count ([1]; 200-mg once-daily group, day 8): Two
maximum tolerated dose ([1]; multiple doses, healthy male subjects): 100 mg once daily
induction of CYP1A2 [2]: weak induction
inhibition of CYP2C19 [3]: weak inhibition
